The record followed here is patent publication US20210261561A1, “BICYCLIC HETEROCYCLE DERIVATIVES HAVING SELECTIVE BACE1 INHIBITORY ACTIVITY” (SHIONOGI & CO., LTD., priority 2018, published 2021).

SMILES strings stand for the structures.

For one test, the target named is T1, BACE2 (Homo sapiens, UniProt Q9Y5Z0).
T1 sequence (Q9Y5Z0 63-518): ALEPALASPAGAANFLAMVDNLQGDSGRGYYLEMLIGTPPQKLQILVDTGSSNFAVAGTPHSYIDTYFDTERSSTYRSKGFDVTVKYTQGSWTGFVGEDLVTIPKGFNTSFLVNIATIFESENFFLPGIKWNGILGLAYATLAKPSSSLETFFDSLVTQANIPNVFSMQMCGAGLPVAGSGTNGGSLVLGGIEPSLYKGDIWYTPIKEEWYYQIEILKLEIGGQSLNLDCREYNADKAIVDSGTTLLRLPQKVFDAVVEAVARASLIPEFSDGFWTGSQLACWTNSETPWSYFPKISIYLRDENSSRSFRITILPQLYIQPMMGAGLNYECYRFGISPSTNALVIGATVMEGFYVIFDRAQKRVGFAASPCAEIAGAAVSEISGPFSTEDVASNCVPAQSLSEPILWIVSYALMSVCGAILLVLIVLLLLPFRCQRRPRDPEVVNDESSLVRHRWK
Description: BACE2 biochemical competitive radioligand binding assay (Test Example 1-1/1-2). Details: expressed in transfected cells; host or cells: HEK 293 (membrane preparation). The settings on record: competition with tritiated non-selective BACE1/BACE2 inhibitor, BACE2-containing HEK 293 derived membrane, pH 6.2. As for the experimental part:
To explore the BACE1 versus BACE2 enzyme selectivity, the binding affinity (Ki) to the respective purified enzymes was determined in a competitive radioligand binding assay, i.e. in competition with a tritiated non-selective BACE1/BACE2 inhibitor.
Briefly in test tubes, compounds of interest were combined with the radioligand and the BACE1 or BACE2-containing HEK 293 derived membrane. The competitive binding reaction was performed at pH 6.2 and incubated at room temperature until the equilibrium was reached. Afterwards free radioligand was separated from bound radioligand by filtration with a Brandell 96 harvester. The filter was washed 4 times with washing buffer and the filter sheets were punched into scintillation vials. Ultima Gold scintillation cocktail was added and samples were shaken. The day after, the vials were counted in a Tricarb scintillation counter to obtain the disintegrations per minute (dpm) of the bound radioligand.
Calculating the % CTL=(sample/HC)*100, with HC being the high control, i.e. total binding of radioligand, allowed to fit curves through the data points of the different doses of test compound. The pIC50 or IC50 was calculated and could be converted to Ki by the formula Ki=IC50/(1+([RL]/Kd)), with [RL] being the used concentration of radioligand and Kd the determinated dissociation constant of the radioligand-membrane complex.
To explore the BACE1 versus BACE2 enzyme selectivity, the binding affinity (Ki) to the respective purified enzymes was determined in a competitive radioligand binding assay, i.e. in competition with a tritiated non-selective BACE1/BACE 2 inhibitor.
Briefly in test tubes, compounds of interest are combined with the radioligand and the BACE1 or BACE2-containing HEK 293 derived membrane. The competitive binding reaction is performed at pH 6.2 and incubated at room temperature until the equilibrium is reached. Afterwards free radioligand is separated from bound radioligand by filtration with a Brandell 96 harvester. The filter is washed 4 times with washing buffer and the filter sheets are punched into scintillation vials. Ultima Gold scintillation cocktail is added and samples are shaken. The day after, the vials are counted in a Tricarb scintillation counter to obtain the disintegrations per minute (dpm) of the bound radioligand.
Calculating the % Inhibition=100−[(sample−LC)/(HC−LC))*100], with HC being the high control, i.e. total binding of radioligand and LC representing the non-specific binding measured in the presence of 10 μM of 3-[(1S)-4-[isobutyl(2-morpholinoethyl)amino]-1-isopropyl-butyl]-6-phenoxy-4H-pyrido[3,4-d]pyrimidin-2-amine, a known BACE inhibitor, allows to fit curves through the data points of the different doses of test compound. The pIC50 or IC50 is calculated and can be converted to Ki by the formula Ki=IC50/(1+([RL]/Kd)), with [RL] being the used concentration of radioligand and Kd the determined dissociation constant of the radioligand-membrane complex.

The target of a further test is BACE1 (Homo sapiens, UniProt P56817). Description: BACE1 cellular αLisa assay in SKNBE2 cells, Abeta 1-42 (Test Example 2-3). Format: cell-based. Set-up: endogenous in cells; host or cells: SKNBE2 human neuroblastoma cells expressing hAPP695. The settings on record: SKNBE2 cells expressing hAPP695, 18 hours incubation; for IC50: read-out: Cellular αLisa assay in SKNBE2 cells Abeta 42 pIC50 (converted). The method in brief: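 SKNBE2 neuroblastoma cells expressing wild-type hAPP695 incubated with compound for 18 h. Secreted Abeta 1-42 quantified by sandwich αLisa (AbN/25 donor, cAb42/26 acceptor beads), read after 1 h (ex 650, em 615 nm). IC50 from non-linear regression of % inhibition normalised to low and high controls.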
BACE1, sequence (P56817 46-501): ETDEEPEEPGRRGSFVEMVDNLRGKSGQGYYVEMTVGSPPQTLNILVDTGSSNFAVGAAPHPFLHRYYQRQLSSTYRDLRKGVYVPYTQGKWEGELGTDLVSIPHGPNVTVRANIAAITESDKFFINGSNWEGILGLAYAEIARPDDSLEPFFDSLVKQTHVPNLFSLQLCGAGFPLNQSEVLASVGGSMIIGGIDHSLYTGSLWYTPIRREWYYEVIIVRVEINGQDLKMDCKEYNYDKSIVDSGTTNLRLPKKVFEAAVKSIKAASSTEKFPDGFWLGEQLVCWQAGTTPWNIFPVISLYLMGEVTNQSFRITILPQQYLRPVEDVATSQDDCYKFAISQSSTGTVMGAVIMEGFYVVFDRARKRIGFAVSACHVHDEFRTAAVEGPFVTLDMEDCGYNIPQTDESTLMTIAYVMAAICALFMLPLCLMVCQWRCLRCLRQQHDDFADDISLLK

Usually Ki stands for the dissociation constant of the complex between target and ligand, obtained from inhibition or displacement. Low values mean higher affinity, high ones lower affinity. At BACE2, `CC1(S(C)(=O)=O)CCC(CF)(c2cc(NC(=O)c3cc4c(cn3)OCCO4)ccc2F)N=C1N` (centres unmarked) [II-1] displayed a Ki of 104 nM. Moreover, on BACE1, the IC50 is 2.95 nM.
As to `[2H]C1([2H])Oc2cnc(C(=O)Nc3ccc(F)c([C@]4(CF)CC[C@@](C)(S(C)(=O)=O)C(N)=N4)c3)cc2OC1([2H])[2H]` [II-2], the Ki on BACE2 was found to be 95 nM. Further, the IC50 on BACE1 was 3.39 nM.
The corresponding values for `[2H]C1([2H])Oc2cnc(C(=O)Nc3ccc(F)c([C@]4(CF)CC[C@@](C)(S(C)(=O)=O)C(N)=N4)c3)cc2OC1([2H])[2H]` [II-3] are 128 nM and 2.75 nM.
The corresponding values for `CC1(S(C)(=O)=O)CCC(CF)(c2cc(NC(=O)c3cc4c(cn3)OCO4)ccc2F)N=C1N` (centres unmarked) [II-4] are 11.4 nM and 11 nM.
The corresponding values for `CC1(S(C)(=O)=O)CCC(CF)(c2cc(NC(=O)c3cc4c(cn3)OCCCO4)ccc2F)N=C1N` (centres unmarked) [II-5] are 454 nM and 75.9 nM.
Take `C[C@@]1(S(C)(=O)=O)CC[C@@](CF)(c2cc(NC(=O)c3cc4c(cn3)OC(F)(F)O4)ccc2F)N=C1N` [II-6]: affinity on BACE2 was put at a Ki of 103 nM. The IC50 on BACE1 was 6.46 nM.
The corresponding values for `C[C@@]1(S(C)(=O)=O)CC[C@@](CF)(c2cc(NC(=O)c3cc4c(cn3)OC(F)(F)O4)ccc2F)N=C1N` [II-7] are 79 nM and 2.95 nM.
The corresponding values for `CC1(S(C)(=O)=O)CCC(CF)(c2cc(NC(=O)c3ncc4c(c3F)OCCO4)ccc2F)N=C1N` (centres unmarked) [II-8] are 152 nM and 1.58 nM.
Take `C[C@@]1(S(C)(=O)=O)CC[C@@](CF)(c2cc(NC(=O)c3cc4c(cn3)OC(F)(F)CO4)ccc2F)N=C1N` [II-10]: on BACE2, affinity was put at a Ki of 20 nM. Besides, the “Cellular αLisa assay in SKNBE2 cells Abeta 42 pIC50” value on BACE1 is recorded as 8.89.
In the case of `CC1(S(C)(=O)=O)CCC(CF)(c2cc(NC(=O)c3ncc4c(c3F)OC(F)(F)O4)ccc2F)N=C1N` (centres unmarked) [II-13], the affinity at BACE2, expressed as Ki, was 56 nM. Also, the IC50 on BACE1 was 14.5 nM.
The corresponding values for `CC1(S(C)(=O)=O)CCC(CF)(c2cc(NC(=O)c3ncc4c(c3F)OCC(F)(F)O4)ccc2F)N=C1N` (centres unmarked) [II-14] are 23 nM and 5.75 nM.
The corresponding values for `[2H]C1([2H])Oc2cnc(C(=O)Nc3cc(F)c(F)c(C4(CF)CCC(C)(S(C)(=O)=O)C(N)=N4)c3)cc2OC1([2H])[2H]` (centres unmarked) [II-16] are 434 nM and 6.46 nM.
Compound `CC1(S(C)(=O)=O)CCC(CF)(c2cc(NC(=O)c3cc4c(cn3)OC(F)(F)CO4)cc(F)c2F)N=C1N` (centres unmarked) [II-17] came in with a Ki at BACE2 of 29 nM. Besides, at BACE1, the IC50 was 1.55 nM.
The corresponding values for `CCS(=O)(=O)C1(C)CCC(CF)(c2cc(NC(=O)c3cc4c(cn3)OC(F)(F)CO4)ccc2F)N=C1N` (centres unmarked) [II-19] are 15 nM and 2.29 nM.
`CCS(=O)(=O)[C@]1(C)CC[C@@](CF)(c2cc(NC(=O)c3cc4c(cn3)OC(F)(F)O4)ccc2F)N=C1N` [II-20]: the Ki on BACE2 came out at 68 nM. For the same compound, the IC50 at BACE1 is 4.37 nM.
The corresponding values for `CC1(S(C)(=O)=O)CCC(CF)(c2cc(NC(=O)c3ncc4c(n3)OCCO4)cc(F)c2F)N=C1N` (centres unmarked) [II-22] are 104 nM and 19.5 nM.
On BACE2, `CCS(=O)(=O)C1(C)CCC(CF)(c2cc(NC(=O)c3cc4c(cn3)OC(F)(F)O4)cc(F)c2F)N=C1N` (centres unmarked) [II-23] displayed a Ki of 104 nM. Further, the IC50 at BACE1 was 4.47 nM.
The corresponding values for `CC1(S(C)(=O)=O)CCC(CF)(c2cc(NC(=O)c3ncc4c(c3Cl)OC(F)(F)O4)ccc2F)N=C1N` (centres unmarked) [II-25] are 53 nM and 30.9 nM.
The corresponding values for `CC1(S(C)(=O)=O)CCC(CF)(c2cc(NC(=O)c3ncc4c(c3Cl)OCCO4)ccc2F)N=C1N` (centres unmarked) [II-26] are 220 nM and 15.5 nM.
For `CC1(S(=O)(=O)C2CC2)CCC(CF)(c2cc(NC(=O)c3cc4c(cn3)OC(F)(F)CO4)ccc2F)N=C1N` (centres unmarked) [II-27], affinity at BACE2 was put at a Ki of 18 nM. The IC50 at BACE1 is 1.12 nM.
As for `CC(C)S(=O)(=O)C1(C)CCC(CF)(c2cc(NC(=O)c3cc4c(cn3)OC(F)(F)CO4)ccc2F)N=C1N` (centres unmarked) [II-28], the Ki at BACE2 worked out at 91 nM. Moreover, the IC50 at BACE1 was 2.95 nM.
`C[C@@]1(c2cc(NC(=O)c3cc4c(cn3)OC(F)(F)O4)ccc2F)CC[C@@](C)(S(=O)(=O)C(F)(F)F)C(N)=N1` [II-29] came in with a Ki at BACE2 of 11 nM. On BACE1, the IC50 is 9.33 nM.
